Peptide text beside a SMILES is read from it.
assay: Sweet potency as logarithm of sweet potency (log SP) relative to sucrose; No sweet; format: functional

Row | Structure (SMILES) | Log SP
1 | CCOC(=O)C[C@H](Cc1ccccc1)NC(=O)[C@H](N)CC(=O)O | Not sweet
2 | CC[C@@H](CC(=O)OC1CCCCC1)NC(=O)[C@H](N)CC(=O)O | Not sweet
3 | CC(C)C[C@H](NC(=O)[C@H](N)CC(=O)O)C(=O)OC(C)C | Not sweet
4 | COC(=O)C(NC(=O)[C@@H](N)CC(=O)O)C(=O)OC1CC(C)CCC1C(C)C (stereo not given in full) | Not sweet
5 | COC(=O)C(CNC(=O)[C@H](N)CC(=O)O)C(=O)OC1CCCCC1 (stereo not given in full) | Not sweet
6 | CC(=O)OC[C@H](CC(C)C)NC(=O)[C@H](N)CC(=O)O | Not sweet
7 | COC(=O)[C@@H](CC(C)C)NC(=O)[C@H](N)CC(=O)O | Not sweet
8 | CC[C@@H](COC(=O)C1CCCCC1)NC(=O)[C@H](N)CC(=O)O | Not sweet
9 | CC1CCCCC1OC(=O)CCNC(=O)[C@H](N)CC(=O)O (stereo not given in full) | Not sweet
10 | COC(=O)[C@@H](COC(=O)c1ccccc1)NC(=O)[C@H](N)CC(=O)O | Not sweet
11 | COC(=O)C(CNC(=O)[C@H](N)CC(=O)O)Cc1ccccc1 (stereo not given in full) | Not sweet
12 | COC(=O)C(CNC(=O)[C@H](N)CC(=O)O)C(=O)OC1CCCC1 (stereo not given in full) | Not sweet
13 | CCCCOC(=O)CCNC(=O)[C@H](N)CC(=O)O | Not sweet
14 | CCC(C)[C@@H](COC(C)=O)NC(=O)[C@H](N)CC(=O)O (stereo not given in full) | Not sweet
15 | C[C@@H](COC(=O)C1CCCC(C)(C)C1)NC(=O)[C@H](N)CC(=O)O (stereo not given in full) | Not sweet
16 | CC[C@@H](CC(=O)OC(C)C)NC(=O)[C@H](N)CC(=O)O | Not sweet
17 | COC(=O)[C@@H](CC(=O)OC1CCCCC1)NC(=O)[C@H](N)CC(=O)O | Not sweet
18 | CCC[C@@H](COC(=O)CC)NC(=O)[C@H](N)CC(=O)O | Not sweet
19 | C[C@@H](COC(=O)c1ccccc1)NC(=O)[C@H](N)CC(=O)O | Not sweet
20 | CC(=O)OC[C@H](Cc1ccccc1)NC(=O)[C@H](N)CC(=O)O | Not sweet
21 | CCCCC(=O)OC[C@H](CC)NC(=O)[C@H](N)CC(=O)O | Not sweet
22 | CC[C@H](C)[C@H](NC(=O)[C@@H](N)CC(=O)O)C(=O)OC (H-Asp-Ile-OMe) | Not sweet
23 | COC(=O)C(CNC(=O)[C@H](N)CC(=O)O)C(=O)OC | Not sweet
24 | C[C@@H](COC(=O)C1CCCCC1)NC(=O)[C@H](N)CC(=O)O | Not sweet

assay: Sweet potency as logarithm of sweet potency (log SP) relative to sucrose; Sweet; format: functional

Row | Structure (SMILES) | Log SP
25 | CCCCCCNC(=O)[C@H](N)CC(=O)O | Sweet
26 | N[C@H](CC(=O)O)C(=O)N[C@@H](CO)Cc1ccccc1 | Sweet
27 | CCC(C)C[C@H](C)NC(=O)[C@H](N)CC(=O)O (stereo not given in full) | Sweet

assay: Sweet potency as logarithm of sweet potency (log SP) relative to sucrose; format: functional

Row | Structure (SMILES) | Log SP
28 | CCSC[C@@H](NC(=O)[C@H](N)CC(=O)O)C(=O)OC | 1.6
29 | CC[C@@H](Cc1ccccc1)NC(=O)[C@H](N)CC(=O)O | 0.89
30 | COC(=O)[C@@H](COC(C)=O)NC(=O)[C@H](N)CC(=O)O | 0.91
31 | N[C@H](CC(=O)O)C(=O)NCCC(=O)OC1CCCCC1 | 1.22
32 | CC(C)CC(=O)OCCNC(=O)[C@H](N)CC(=O)O | 1.36
33 | CC(C)[C@@H](COC(=O)C1CC1)NC(=O)[C@H](N)CC(=O)O | 1.22
34 | CC(C)OC(=O)[C@H](C)NC(=O)[C@H](N)CC(=O)O | 1.95
35 | C[C@@H](COC(=O)C(C)(C)C)NC(=O)[C@H](N)CC(=O)O | 2.28
36 | COC(=O)C(NC(=O)[C@@H](N)CC(=O)O)C(=O)OC1CCCCC1C (stereo in doubt; 203) | 4.11
37 | CCCC[C@@H](NC(=O)[C@H](N)CC(=O)O)C(=O)OC | 1.49
38 | N[C@H](CC(=O)O)C(=O)N[C@@H](CO)C(=O)OC1CCCCC1 | 1.72
39 | CCC(=O)OC[C@@H](NC(=O)[C@H](N)CC(=O)O)C(C)C | 1.6
40 | CC(C)C(=O)OC[C@H](CO)NC(=O)[C@H](N)CC(=O)O | 1.48
41 | CC(CNC(=O)[C@H](N)CC(=O)O)C(=O)OC1CCCC1 (stereo not given in full) | 0.88
42 | CC(=O)OC[C@@H](NC(=O)[C@H](N)CC(=O)O)C(C)C | 1.58
43 | CCOC(=O)C(NC(=O)[C@@H](N)CC(=O)O)C(=O)OC1CCCCC1C (stereo not given in full) | 3.09
44 | C[C@@H](O)[C@@H](NC(=O)[C@@H](N)CC(=O)O)C(=O)OC1CCCCC1 | 1.44
45 | C[C@@H](COC(=O)C1CC1)NC(=O)[C@H](N)CC(=O)O | 2.18
46 | CCOC(=O)C[C@H](C)NC(=O)[C@H](N)CC(=O)O (stereo in doubt; 133) | 0.88
47 | CCC(CC)OC(=O)[C@@H](NC(=O)[C@H](N)CC(=O)O)C(=O)OC (stereo in doubt; 198) | 2.79
48 | CC[C@@H](COC(C)=O)NC(=O)[C@H](N)CC(=O)O | 1.16

Row | Structure (SMILES) | Log SP
49 | CCCOC(=O)[C@H](CCC)NC(=O)[C@H](N)CC(=O)O | 1.56
50 | COC(=O)[C@H](NC(=O)[C@@H](N)CC(=O)O)[C@H](C)O | 1.26
51 | CCCCOC(=O)[C@H](NC(=O)[C@@H](N)CC(=O)O)[C@H](C)O | 1.23
52 | COC(=O)[C@@H](Cc1ccc(O)cc1)NC(=O)[C@H](N)CC(=O)O | 2.15
53 | COC(=O)C(NC(=O)[C@@H](N)CC(=O)O)C(=O)OCC1C2(C)CCC(C2)C1(C)C (stereo not given in full) | 4.79
54 | CCC(=O)OCCNC(=O)[C@H](N)CC(=O)O | 0.61
55 | CC(C)OC(=O)C[C@H](C)NC(=O)[C@H](N)CC(=O)O | 0.84
56 | CCC(CC)OC(=O)CCNC(=O)[C@H](N)CC(=O)O | 0.6
57 | CCCC(C)OC(=O)CCNC(=O)[C@H](N)CC(=O)O (stereo not given in full) | 0.68
58 | CCOC(=O)C(NC(=O)[C@H](N)CC(=O)O)C(=O)OCC | 1.35
59 | N[C@H](CC(=O)O)C(=O)NCCC1CCCCC1 | 0.85
60 | CCC(=O)OC[C@H](COC)NC(=O)[C@H](N)CC(=O)O | 1.21
61 | CCC(CC)OC(=O)[C@@H](NC(=O)[C@H](N)CC(=O)O)C(=O)OC (stereo in doubt; 199) | 3.06
62 | C[C@@H](CC(=O)OC1CCCCC1)NC(=O)[C@H](N)CC(=O)O | 0.64
63 | CCC[C@H](NC(=O)[C@H](N)CC(=O)O)C(=O)OC(C)C | 1.43
64 | N[C@H](CC(=O)O)C(=O)NCC(=O)OC1CCCCC1 | 1.02
65 | N[C@H](CC(=O)O)C(=O)NCCOC(=O)C1CCC1 | 0.99
66 | CC(C)OC(=O)[C@@H](NC(=O)[C@H](N)CC(=O)O)C(C)C | 2.15
67 | C=CC(=O)OC[C@H](C)NC(=O)[C@H](N)CC(=O)O | 1.85
68 | COC(=O)C(NC(=O)[C@@H](N)CC(=O)O)C(=O)OC1CC2CCC1(C)C2(C)C (stereo not given in full) | 3.16
69 | COC(=O)C(NC(=O)[C@@H](N)CC(=O)O)C(=O)OC1CCCC(C)C1 (stereo not given in full) | 3.02

Row | Structure (SMILES) | Log SP
70 | COC(=O)[C@@H](CSC(C)(C)C)NC(=O)[C@H](N)CC(=O)O | 2.95
71 | CC(C)OC(=O)[C@H](NC(=O)[C@@H](N)CC(=O)O)[C@@H](C)O | 1.93
72 | COC(=O)C(NC(=O)[C@@H](N)CC(=O)O)C(=O)OC1CCCCC1C (stereo in doubt; 202) | 3.92
73 | CCOC(=O)[C@H](C)NC(=O)[C@H](N)CC(=O)O | 1.75
74 | CCCCC[C@@H](NC(=O)[C@H](N)CC(=O)O)C(=O)OC | 1.9
75 | CC(CNC(=O)[C@H](N)CC(=O)O)C(=O)OC1CCCCC1 (stereo not given in full) | 0.94
76 | COC(=O)[C@H](NC(=O)[C@@H](N)CC(=O)O)[C@@H](C)O | 0.71
77 | CCC[C@@H](COC(C)=O)NC(=O)[C@H](N)CC(=O)O | 0.66
78 | N[C@H](CC(=O)O)C(=O)NCCc1ccc(F)cc1 | 0.57
79 | CCCOC(=O)[C@H](NC(=O)[C@@H](N)CC(=O)O)[C@H](C)O | 1.51
80 | CC(=O)OCCNC(=O)[C@H](N)CC(=O)O | 0.28
81 | CC[C@@H](COC(=O)C(C)C)NC(=O)[C@H](N)CC(=O)O | 1.38
82 | C[C@@H](CCc1ccccc1)NC(=O)[C@H](N)CC(=O)O | 0.89
83 | CCC(=O)OC[C@H](CC)NC(=O)[C@H](N)CC(=O)O | 1.48
84 | COC(=O)[C@@H](COC(=O)C(C)(C)C)NC(=O)[C@H](N)CC(=O)O | 1.81
85 | N[C@H](CC(=O)O)C(=O)NCCC(=O)OC1CCCC1 | 1.16
86 | CCCOC(=O)[C@H](C)NC(=O)[C@H](N)CC(=O)O | 2.1
87 | COC(=O)[C@H](Cc1ccccc1)NC(=O)[C@@H](N)CC(=O)O | 2.11
88 | COC(=O)[C@H](C)NC(=O)[C@H](N)CC(=O)O | 1.2
89 | CCCOC(=O)CNC(=O)[C@H](N)CC(=O)O | 0.98
90 | CCCOC(=O)[C@H](NC(=O)[C@@H](N)CC(=O)O)[C@@H](C)O | 2.08

Row | Structure (SMILES) | Log SP
91 | COC(=O)[C@H](NC(=O)[C@H](N)CC(=O)O)C(=O)OC1CCC(C)CC1 (stereo not given in full) | 1.87
92 | COC(=O)C(NC(=O)[C@@H](N)CC(=O)O)C(C)c1ccccc1 (stereo not given in full) | 0.95
93 | CC(C)OC(=O)C(C)CNC(=O)[C@H](N)CC(=O)O (stereo not given in full) | 0.18
94 | COC(=O)CCNC(=O)[C@H](N)CC(=O)O | 0.11
95 | CC(C)COC(=O)[C@H](CO)NC(=O)[C@H](N)CC(=O)O | 2.21
96 | COC(=O)[C@@H](COC(C)(C)C)NC(=O)[C@H](N)CC(=O)O | 2.15
97 | CCC(CC)C(=O)OC[C@H](C)NC(=O)[C@H](N)CC(=O)O | 1.53
98 | CCC(C)OC(=O)CCNC(=O)[C@H](N)CC(=O)O (stereo not given in full) | 0.73
99 | CC(C)CC(=O)OC[C@H](CO)NC(=O)[C@H](N)CC(=O)O | 1.3
100 | COC(=O)C[C@@H](NC(=O)[C@H](N)CC(=O)O)C(=O)OC | 0.6
101 | CCCOC(=O)[C@H](CO)NC(=O)[C@H](N)CC(=O)O | 2.39
102 | CCCCCC[C@@H](NC(=O)[C@H](N)CC(=O)O)C(=O)OC | 2.07
103 | CC(=O)OC[C@H](C)NC(=O)[C@H](N)CC(=O)O | 1.61
104 | COC(=O)[C@@H](CC(=O)OC(C)(C)C)NC(=O)[C@H](N)CC(=O)O | 1.3
105 | CCCC(O)[C@H](NC(=O)[C@H](N)CC(=O)O)C(=O)OC (stereo in doubt; 56) | 1.16
106 | COC(=O)[C@@H](CC1CCCCC1)NC(=O)[C@H](N)CC(=O)O | 2.3
107 | N[C@H](CC(=O)O)C(=O)N[C@@H](CO)COC(=O)C1CCCC1 | 0.92
108 | CC(C)CC[C@H](C)NC(=O)[C@H](N)CC(=O)O | 1.85
109 | CCCC[C@H](C)NC(=O)[C@H](N)CC(=O)O | 1.6
110 | COC(=O)[C@H](NC(=O)[C@H](N)CC(=O)O)C(=O)OC(C)(C)C | 2.03

Reference: ChEMBL document CHEMBL1121833, “Structure--sweetness relationship of L-aspartyl dipeptide analogues. A receptor site topology” (J Med Chem, 1981)
